# Measured values as given in PMC9181543, “Lysosomal Exocytosis of Olivacine on the Way to Explain Drug Resistance in Cancer Cells” (International Journal of Molecular Sciences, 2022).
# Read-outs that look alike come from different tables or passages of the source.
# Assays:
# CCRF/CEM cells [1] = assay: Evaluation of the cell cycle (Tali Cell Cycle Kit); format: cell-based, human; conditions: for cell cycle effect: after exposure
# Procedure: It is expected that tested compounds affect cell division processes (intense in cancer). Therefore, the effect of compounds on the cell cycle was assessed by quantifying the content of cellular DNA in CCRF/CEM cells with Tali Cell Cycle Kit (Invitrogen). Cells were prepared by 24 h initial incubation in RPMI-1640 medium followed by the addition of tested compounds for a further 24 h. Subsequently, cells were harvested, centrifuged, washed, dissolved in PBS, and centrifuged again. After removing PBS, the cells were resuspended in Tali Cell Cycle Solution and incubated for 20 min in the dark at RT. Finally, the cells were transferred to the Tali Cellular Analysis Slides and analyzed using an image-based cytometer Arthur (NanoEnTek Inc.).
# MCF-7 cells [2] = assay: MTT assay (mitochondrial activity), MCF-7; format: cell-based; conditions: Homo sapiens, MCF7
# Procedure: (§1) The anticancer activity of tested compounds was assessed on five human cell lines selected from the panel of tumor cell lines recommended by the National Cancer Institute: A495 (lung carcinoma), CCRF/CEM (acute lymphoblastic leukemia), LoVo and LoVo/DX (two types of colorectal: non-resistant and resistant to doxorubicin), and MCF-7 (breast adenocarcinoma). In addition, the NHDF cell line (normal human dermal fibroblasts) was used to estimate cytotoxicity to noncancer cells. The A549, CCRF/CEM, LoVo, LoVo/DX, and MCF-7 cells were obtained from ECACC, and NHDF cells from LONZA, Belgium. The A549 and MCF-7 cells were grown in EMEM medium, CCRF/CEM cells in RPMI-1640, LoVo and LoVo/DX cells in DMEM/F-12, and NHDF cells in DMEM without phenol red. The cells were seeded in […] in the biological assay, as recommended by the National Cancer Institute. All culture media were supplemented with L-glutamine, penicillin, streptomycin, and 10% fetal bovine serum (FBS). Cells were incubated at 37 °C and 5% CO2. An assessment of the mitochondrial cell activity after applying tested compounds was carried out using the test MTT assay, recommended in the ISO 10993-5:2009 standard. As in the SRB assay, the cells were exposed to tested compounds after 24 h of initial incubation in 96-well plates. The MTT solution (1 mg/mL) was added to each well, and cells were incubated for 2 h. Finally, the supernatant was removed, and the formazan crystals were dissolved in isopropanol. After 30 min, absorbance at 570 nm in Victor2 microplate reader (PerkinElmer). Cell viability was determined as the IC50 ratio, i.e., the concentration of the compound in which the viability was reduced by half compared with the control.
# NHDF cells = assay: MTT assay (mitochondrial activity), NHDF; format: cell-based; conditions: Homo sapiens, NHDF normal cells
# Procedure: as §1
# LoVo cells = assay: SRB assay (total protein content), LoVo; format: cell-based; conditions: Homo sapiens, 48 h incubation
# Procedure: The anticancer activity of tested compounds was assessed on five human cell lines selected from the panel of tumor cell lines recommended by the National Cancer Institute: A495 (lung carcinoma), CCRF/CEM (acute lymphoblastic leukemia), LoVo and LoVo/DX (two types of colorectal: non-resistant and resistant to doxorubicin), and MCF-7 (breast adenocarcinoma). In addition, the NHDF cell line (normal human dermal fibroblasts) was used to estimate cytotoxicity to noncancer cells. The A549, CCRF/CEM, LoVo, LoVo/DX, and MCF-7 cells were obtained from ECACC, and NHDF cells from LONZA, Belgium. The A549 and MCF-7 cells were grown in EMEM medium, CCRF/CEM cells in RPMI-1640, LoVo and LoVo/DX cells in DMEM/F-12, and NHDF cells in DMEM without phenol red. The cells were seeded in […] in the biological assay, as recommended by the National Cancer Institute. All culture media were supplemented with L-glutamine, penicillin, streptomycin, and 10% fetal bovine serum (FBS). Cells were incubated at 37 °C and 5% CO2. One of the most popular in vitro tests to evaluate the activity of compounds with potential antitumor activity is the SRB assay. The sulforhodamine B dye is used, which binds to the protein at the appropriate pH. The assay allows for assessing cell mass and, indirectly, their proliferation. The advantage of the assay is that it measures cellular protein content and not the activity of any enzymes. The SRB assay was carried out according to the National Cancer Institute procedure. Cells were incubated in a culture medium for 24 h in 96-well plates. After 24 h, the control plate for each cell line was fixed with TCA to evaluate cell culture before treatment with tested compounds. […] Cell cultures were then fixed by adding 50% TCA at 4 °C for 1 h. After removing the supernatant, the plates were washed with water and dried. […] Growth inhibition was calculated following the NCI guidelines and expressed as the GI50 ratio, i.e., the concentration of the compound in which the amount of protein was reduced by half compared with the control.
# CCRF/CEM cells [3] = assay: MTT assay (mitochondrial activity), CCRF/CEM; format: cell-based; conditions: Homo sapiens
# Procedure: as §1
# MCF-7 cells [4] = test system: MCF-7 cells; parameters: method as in PMID 15896464; conditions: cited from earlier work
# MV4–11 cells = test system: MV4–11 cells; parameters: method as in PMID 25107543; conditions: 5 μM; cited from earlier work
SMILES,cell cycle inhibition at lower concentrations (CCRF/CEM cells [1]; 0.2 µM and 0.5 µM),cell cycle effect (CCRF/CEM cells [1]),IC50 (MCF-7 cells [2]),IC50 (NHDF cells),GI50 (LoVo cells),IC50 (CCRF/CEM cells [3]),IC50 (MCF-7 cells [4]),cell cycle effect (MV4–11 cells)
"Cc1nccc2c(C)c3[nH]c4ccccc4c3cc12 [Olivacine, 1,5-dimethyl-6H-pyrido[4,3-b]carbazole]",No cell cycle inhibition,blockade of the cell cycle in the G0/G1 phase,18.5 ± 2.41 µM,15.3 ± 1.95 µM,1.02 ± 0.21 µM,11 ± 3.3 µM,,
Cc1c2ccncc2c(C)c2c1[nH]c1ccccc12 [Ellipticine],,blockade of the cell cycle in the G0/G1 phase,4.67 ± 0.53 µM,8.98 ± 1.44 µM,0.95 ± 0.25 µM,5.86 ± 0.51 µM,1.52 µM,arrest of the cell cycle at the G2/M checkpoint
